Data as given in patent US8188119B2, “Pyridine derivatives substituted with heterocyclic ring and γ-glutamylamino group, and antifungal agents containing same” (Eisai R&D Management Co., Ltd, priority 2008, dated 2012).
In brackets after ≈: the same amount, converted by molar mass. Like-named read-outs stand apart in the source and are kept apart here.

What was measured:
[1] = Comparative test of solubility in water (Britton-Robinson buffer); type: physicochemical; settings: for solubility: aqueous buffer, Britton-Robinson buffer (ionic strength: 0.3), 25° C.; for Solubility in water compared with the parent compound: conclusion from Table 1
[2] = Stability in solution in Britton-Robinson buffer; settings: Britton-Robinson buffer (ionic strength: 0.3), 25° C.
[3] = buffer
[4] = Pharmacokinetic evaluation of compounds of Examples 2 and 3 in mice (plasma concentration, LC-MS); type: in vivo; settings: female ICR mice, tail vein, 3 mg/kg as active form equivalent; for Plasma concentration of the administered compound: 20 min to 8 h; for Plasma concentration of the administered compound / Concentration of the active form in plasma after administration of the compound: FIG. 2
Protocol: 2. Pharmacokinetic Evaluation of Compound of Examples 2 and 3 in Mice
The compounds of Examples 2 and 3 were dissolved in respective concentrations of 1 and 1.5 mg/mL with 5% glucose (Otsuka Pharmaceutical) containing a 10 mM hydrochloric acid solution (Wako Pure Chemicals), and the active form was dissolved in a concentration of 0.5 mg/mL in 5% glucose (Otsuka Pharmaceutical) containing a 10 mM hydrochloric acid solution (Wako Pure Chemicals).
Using seven-week-old female ICR mice (Charles River Japan), with two mice per group, the compound of the present invention and the active form thereof were administered into the tail vein in a dose of 3 mg/kg, calculated as an active form equivalent. The tail vein was punctured 20 minutes, 45 minutes, and 1.5, 3, 5, and 8 hours after administration, and blood was collected with a heparin-treated pipette. The blood samples were put in sampling tubes and stored under ice cooling, after which they were centrifuged for 5 minutes at 10,500×g and at 4° C. The plasma thus obtained was accurately divided into 5 μL amounts and stored at −20° C. until they were analyzed.
The plasma concentrations of the compounds of Examples 2 and 3 and the active form thereof were measured using a liquid chromatography mass spectrometer (LC-MS: Waters, ZQ mass detector), and quantified by internal standard method. Imipramine hydrochloride (Sigma) was dissolved in a mixed solution of acetonitrile and methanol (9:1) so that the concentration would be 1 μmol/L, to prepare an internal standard substance solution (IS solution). The plasma was melted, after which 50 μL of IS solution was added thereto and mixed while still cooled with ice, and this was centrifuged (deproteinated) for 10 minutes at 1607×g and at 4° C., after which the supernatant was analyzed by LC-MS (Waters, ZQ mass detector). In the chromatogram thus obtained, the surface area of the peaks for the compounds of Examples 2 and 3, the active form thereof, and the internal standard substance were analyzed with analytic software (Waters: MassLynx 4.0), and the concentration of the compound included in the plasma was calculated by internal standard method.

[5] = Pharmacokinetic evaluation of compound of Example 1 in mice (plasma concentration, LC-MS/MS); type: in vivo; settings: female ICR mice, tail vein, 3 mg/kg
Protocol: 1. Pharmacokinetic Evaluation of Compound of Example 1 in Mice […] The blood samples were put in sampling tubes and stored under ice cooling, after which they were centrifuged for 5 minutes at 10,500×g and at 4° C. The plasma thus obtained was accurately divided into 10 μL amounts and stored at −20° C. until they were analyzed. The plasma concentrations of the compound of Example 1 and the active form thereof were measured using a liquid chromatography mass spectrometer (LC-MS/MS: Waters, Quattro Ultima Pt), and quantified by internal standard method. […] MultiScreen™) and analyzed by LC-MS/MS (Waters, Quattro Ultima Pt). In the chromatogram thus obtained, the surface area of the peaks for the compound of Example 1, the active form thereof (the parent compound of the compound of Example 1), and the internal standard substance were analyzed with analytic software (Waters: MassLynx 4.0), and the concentration of the compound included in the plasma was calculated by internal standard method. The active form concentration after administration of the compound of Example 1 was corrected with the molecular weight ratio, that is, the value of (the molecular weight of the compound of Example 1)/(the molecular weight of the active form).

[6] = pH 3, read-out: Solubility (mg/mL) pH 3
[7] = pH 7, read-out: Solubility (mg/mL) pH 7

| SMILES | solubility [1, 6] | solubility [1, 7] | Stability in solution (remainder (%) after 24 h in dark place) pH 2 ([2]; pH 2 (printed in pH 3 column), 24 h in dark place) | Stability in solution (remainder (%) after 24 h in dark place) pH 4 ([2]; pH 4 (printed in pH 3 column), 24 h in dark place) | Stability in solution (remainder (%) after 24 h in dark place) pH 7 ([2]; pH 7, 24 h in dark place) | Solubility in water compared with the parent compound [1] | Stability in solution (remainder (%) after 24 h in dark place) pH 3 [3] | Stability in solution (remainder (%) after 24 h in dark place) pH 7 [3] | Conversion into the active form in the bodies of the mice [4] | Plasma concentration of the administered compound [4] | Concentration of the active form in plasma after administration of the compound [4] | Conversion into the active form in the bodies of the mice [5] | Plasma concentration of the active form after administration of the compound ([5]; FIG. 1) | Plasma concentration of the administered compound ([5]; FIG. 1) |
| --- | --- | --- | --- | --- | --- | --- | --- | --- | --- | --- | --- | --- | --- | --- |
| Nc1ncccc1-c1cc(Cc2ccc(COc3ccccn3)cc2)no1 [Parent compound, 3-(3-(4-(Pyridin-2-yloxymethyl)-benzyl)-isoxazol-5-yl)-pyridin-2-ylamine] | 0.29 mg/mL (≈ 809 µM) | 0.001 mg/mL (≈ 2.79 µM) | 90 (pH 2) % | 99 (pH 4) % | 95% |  |  |  |  |  |  |  |  |  |
| COC(=O)[C@@H](N)CCC(=O)Nc1ncccc1-c1cc(Cc2ccc(COc3ccccn3)cc2)no1 [Example 2, (S)-2-Amino-4-(3-{-[4-(pyridin-2-yloxymethyl)-benzyl]soxazol-5-yl}-pyridin-2-ylcarbamoyl)-butyric acid methyl ester] | 45 mg/mL (≈ 89700 µM) | 0.2 mg/mL (≈ 399 µM) |  |  |  | higher solubility in water than does the parent compound | 88% | 44% | rapidly converted into the active form | not detected | rose sharply after administration |  |  |  |
| N[C@@H](CCC(=O)Nc1ncccc1-c1cc(Cc2ccc(COc3ccccn3)cc2)no1)C(=O)O [Example 1, (S)-2-Amino-4-(3-(3-(4-(pyridin-2-yloxymethyl)-benzyl)-isoxazol-5-yl)-pyridin-2-ylcarbamoyl)-butyric acid] | 1.1 mg/mL (≈ 2260 µM) | 0.3 mg/mL (≈ 615 µM) |  |  |  | higher solubility in water than does the parent compound | 96% | 92% |  |  |  | rapidly converted into the active form | increased quickly from immediately after administration | decreased quickly after administration |
| CN(C)CCOC(=O)[C@@H](N)CCC(=O)Nc1ncccc1-c1cc(Cc2ccc(COc3ccccn3)cc2)no1 [Example 3, (S)-2-Amino-4-(3-{3-[4-(pyridin-2-yloxymethyl)-benzyl]-isoxazol-5-yl}-pyridin-2-ylcarbamoyl)-butyric acid 2-dimethylamino-ethyl ester] | 12 mg/mL (≈ 21500 µM) | 1.1 mg/mL (≈ 1970 µM) |  |  |  | higher solubility in water than does the parent compound | 116% | 82% | rapidly converted into the active form | not detected | rose sharply after administration |  |  |  |
